Converted amounts (≈) assume the structure as drawn.
Conditions: buffer; pH 7.4; 200.0 µM

Compound	solubility kinetic [µg/mL]
Cc1ccc(C)c(OCC(=O)N2CCc3ccccc3C2)c1	22.3 (≈ 75.5 µM)
CC(C)C12CN3CC(C(C)C)(CN(C1)C3(C)C)C2=O	32 (≈ 121 µM)
C=CCNC(=O)/C(=C/c1cccc([N+](=O)[O-])c1)NC(=O)c1ccco1	43.3 (≈ 127 µM)
COc1ccc(C)cc1NC(=O)CCCN1C(=O)NC(C)(C)C1=O	> 50
CNc1nc(Cl)c(SC)c(NCc2ccc(F)cc2)n1	0.6 (≈ 1.92 µM)
O=C(CCS(=O)(=O)c1ccccc1)Nc1ncc([N+](=O)[O-])s1	29.2 (≈ 85.5 µM)
COCc1cc(=O)[nH]c(SCC(=O)c2ccccc2)n1	> 43.6
N#Cc1ccccc1-c1ccccc1C(=O)N1CCCCC1	> 43.6
Br.Fc1ccc(CNCC2CCCO2)cc1 (centres undefined)	39.1
O=C(COC(=O)C1(c2cccc(F)c2)CCCC1)NCc1cccs1	16.2 (≈ 44.8 µM)
C=CCNc1nc(C(=O)OC(C)C(=O)c2ccc(C)cc2)cs1 (centres undefined)	8.8 (≈ 26.6 µM)
CCn1cc(S(=O)(=O)Nc2ccc(C)c(Cl)c2)cn1	> 45
CC(C)CC(=O)c1c[nH]c(C(=O)NCc2ccc(F)cc2)c1	0.7 (≈ 2.32 µM)
Cc1nc2sc(C(=O)OC(C)C)c(N)c2c(C)c1C	< 0.3
NS(=O)(=O)c1cccc(NC(=O)c2cccc(S(=O)(=O)N3CCCCCC3)c2)c1	49.9 (≈ 114 µM)
N#C/C(=C\c1ccccc1Br)C(=O)NC1CC1	> 43.7
Cc1ccc(C(=O)NCCc2c[nH]c3ccccc23)c(C)c1	23 (≈ 78.7 µM)
Cc1ccc(S(=O)(=O)N[C@@H](Cc2ccccc2)C(=O)CCl)cc1	> 52.8
Nc1nc(O)c(Sc2ccccc2[N+](=O)[O-])c(=O)[nH]1	> 42
COc1ccc(Nc2ncnc3sc(C)cc23)c(OC)c1.Cl	> 50.7

Compound	solubility kinetic [µg/mL]
COc1ccc(C(=O)/C=C/Nc2cc(C)ccn2)cc1	5.8 (≈ 21.6 µM)
Cc1ccc(CNC(=O)Cc2noc3ccccc23)cc1	2.3 (≈ 8.2 µM)
O=S(=O)(NOCc1ccc(Cl)cc1)c1ccc(Cl)cc1	< 0.7
Cc1cc(C)c2nc(C)cc(Nc3ccc(C(=O)NCCO)cc3)c2c1	35.5 (≈ 102 µM)
CCCSC1=C(C#N)C2(CCCCC2)C(C#N)=C(N)N1	> 43.3
O=C(Nc1ccc(N2CCOCC2)c(S(=O)(=O)Nc2ccccc2Cl)c1)c1ccc(F)cc1	1 (≈ 2.04 µM)
FC(F)(F)Sc1ccc(NC(=S)NCc2ccccc2)cc1	< 0.4
CC(=O)Nc1ccc(C(=O)CN2C(=O)CSC2=O)cc1	> 43.8
CC(C)C(NC(=O)c1ccc([N+](=O)[O-])cc1Cl)C(=O)N1CCCC1 (centres undefined)	> 53.1
COc1ccc(-c2csc(Nc3ncccn3)n2)cc1C	< 0.1
Cc1cccc(NC(=O)CCC(=O)N2CCOCC2)n1	> 41.6
CCC1(c2ccc(F)cc2)NC(=O)N(CC(=O)NC2CCCCCC2)C1=O (centres undefined)	10.4 (≈ 27.7 µM)
CCOc1ccccc1NC(=O)N1CCCc2ccccc21	< 0.3
Cc1ccccc1OCC(=O)NC(C)c1ccccc1 (centres undefined)	39.8 (≈ 148 µM)
Cc1ccc2c(COC(=O)c3c(C)noc3C)cc(=O)oc2c1	3.1 (≈ 9.89 µM)
O=C(Cc1ccc(Cl)cc1)NCC(=O)N1CCCCC1	39.7 (≈ 135 µM)
O=C(c1ccc(Cl)cc1Cl)N1CCc2ccccc21	13.9 (≈ 47.6 µM)
Cc1ccc(C)c(OC(=O)c2cccnc2Cl)c1C	14.8 (≈ 53.7 µM)
O=C(NCCc1ccccc1)c1cnc2n(c1=O)CCS2	45 (≈ 149 µM)
O=C(O)c1ccccc1-c1ccccc1C(=O)Nc1ccc2c(c1)CCC2	> 53.6

Compound	solubility kinetic [µg/mL]
CCN(CC)CCNC(=O)C(=O)Nc1ccc(C(=O)OC)cc1	> 48.2
Cc1ccc(-c2ccc(S(=O)(=O)Nc3cccnc3)cc2)cc1	0.5 (≈ 1.54 µM)
O=C(COC(=O)CCc1nc2ccccc2c(=O)[nH]1)Nc1ccccc1	> 52.7
COc1ccccc1N1CCN(C(=O)c2cc(C(C)(C)C)oc2C)CC1	41.8 (≈ 117 µM)
Cc1c(O)ccc(C(=O)CN2CCN(Cc3ccccc3)CC2)c1O	38.1 (≈ 112 µM)
O=C(c1ccc(Br)cc1)N1CCN(c2ncccn2)CC1	44.6 (≈ 128 µM)
O=S(=O)(c1ccc(F)cc1)N1CCc2ccccc21	18.9 (≈ 68.2 µM)
Br.CCCCCCCCn1ccc(=N)cc1	> 43.1
CC(C)NC(=O)CCc1nc2cccnc2n1-c1ccccc1	43.3 (≈ 140 µM)
COc1ccc(NC(=O)CSCC(=O)N=c2sccn2C)cc1	49.9 (≈ 142 µM)
Cn1cc(/C=C(\C#N)C(=O)Nc2ccccc2O)c2ccccc21	< 0.2
CCOCCCNC(=O)/C(C#N)=C/c1cc(C)c(O)c(C)c1	7 (≈ 23.2 µM)
Cn1c(N)c(S(=O)(=O)N2CCCC2)c(=O)n(C)c1=O	> 43.2
CCOc1ccc2[nH]cc(C(=O)NCc3ccc(F)cc3)c(=O)c2c1	1.9 (≈ 5.58 µM)
Cc1cc(C)cc(C(=O)OCC(=O)Nc2ncccn2)c1	37.4 (≈ 131 µM)
CC1CC(C)CN(CC(O)COCc2ccccc2F)C1.Cl (centres undefined)	> 49.8
O=C(Nc1cccc([N+](=O)[O-])c1)N1CCc2ccccc2C1	28.6 (≈ 96.2 µM)
O=C(N/C(=C/c1ccccc1)C(=O)N1CCCCC1)c1ccco1	> 48.7
Cc1ccc(CNC(=O)C2CCCN2C(=O)Nc2ccc(C)cc2)cc1 (centres undefined)	11.4 (≈ 32.4 µM)
